Some test systems named below: OVCAR-4; IGROV-1; COLO 205; NCI/ADR-RES; A498; HCT-116; SNB-75; SK-MEL-5; Hs-578T; SK-MEL-2; NCI-H226; HCC 2998; U-251; UACC-257; EKVX; SF-295; CCRF-CEM; HL-60; OVCAR-3.
What all share (assay): growth of human tumour cells (NCI), 48 h

Each structure is given as a SMILES string.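 Each compound was tested at five concentrations against cells in 96-well plates for 48 hours. At the GI50, growth is halved.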 Active and inactive are the calls of the source. Cut-off read from the data, not from the text of the source: active = GI50 up to about 1.1 µM and inactive = higher.

In the case of `Nc1nc(O)c2nc3c(nc2n1)C(=O)N(c1ccc(C(=O)O)cc1)C3`, the GI50 in the assay with OVCAR-4, in the assay with IGROV-1, in the assay on COLO 205, in the assay on NCI/ADR-RES, with A498 and with HCT-116 was > 100 µM (inactive) in each case. The GI50 in the assay with SNB-75, with SK-MEL-5, in the assay on Hs-578T, in the assay with SK-MEL-2, in the assay on NCI-H226 and in the assay with HCC 2998 was > 100 µM (inactive) in each case. Moreover, the GI50 in the assay on U-251, in the assay on UACC-257, in the assay on EKVX and in the assay on SF-295 was > 100 µM (inactive) throughout.
For `c1ccc(CC2(c3cc4ccccc4[nH]3)OCCO2)nc1`, the GI50 is 83 µM (inactive) with CCRF-CEM; 72.3 µM (inactive) in the assay on HL-60; 1.95 µM (inactive) in the assay on IGROV-1; > 100 µM (inactive) with COLO 205; > 100 µM (inactive) in the assay on NCI/ADR-RES; > 100 µM (inactive) in the assay on A498. Further, the GI50 is > 100 µM (inactive) in the assay with HCT-116; 90.6 µM (inactive) in the assay on OVCAR-3; 12.1 µM (inactive) in the assay with SNB-75; > 100 µM (inactive) with SK-MEL-5; 51.5 µM (inactive) with Hs-578T; > 100 µM (inactive) in the assay on SK-MEL-2. The GI50 with NCI-H226 is 18 µM (inactive); in the assay on U-251 it was > 100 µM (inactive); in the assay on UACC-257 it was > 100 µM (inactive); in the assay with EKVX, 92.3 µM (inactive); in the assay with SF-295, 58.1 µM (inactive).
For the molecule `O=c1c2sc3nc(NCCN4CCCCC4)ncc3c2ncn1-c1ccccc1`, the GI50 with CCRF-CEM is 44.7 µM (inactive); with OVCAR-4, > 100 µM (inactive); in the assay with IGROV-1 it was 40 µM (inactive); in the assay on COLO 205, 41.3 µM (inactive); in the assay on NCI/ADR-RES, 62.5 µM (inactive); in the assay with A498 it was > 100 µM (inactive). The GI50 with HCT-116 was 33.1 µM (inactive); in the assay on OVCAR-3, > 100 µM (inactive); in the assay with SNB-75, 45.3 µM (inactive); in the assay on SK-MEL-5 it was 19.2 µM (inactive); in the assay with Hs-578T, 36.4 µM (inactive); in the assay with SK-MEL-2, 34.2 µM (inactive). For the same molecule, the GI50 with NCI-H226 was 93.8 µM (inactive); in the assay with HCC 2998, > 100 µM (inactive); in the assay with U-251 it was 44.4 µM (inactive); in the assay with UACC-257, 31.3 µM (inactive); in the assay with SF-295 it was 61.8 µM (inactive).
In the case of `COc1ccc(NC(=S)NC(=O)c2ccc3c(c2)Sc2ccccc2O3)c([N+](=O)[O-])c1`, the GI50 was 36.4 µM (inactive) in the assay on CCRF-CEM; 32.7 µM (inactive) with HL-60; 14.9 µM (inactive) with OVCAR-4; 18.7 µM (inactive) in the assay with IGROV-1; > 100 µM (inactive) in the assay on COLO 205; 33.6 µM (inactive) in the assay on NCI/ADR-RES. The GI50 in the assay with A498 was 18.5 µM (inactive); with HCT-116 it was 28.9 µM (inactive); with OVCAR-3 it was 22.6 µM (inactive); in the assay with SNB-75 it was 8.36 µM (inactive); in the assay on SK-MEL-5, 20.6 µM (inactive); in the assay on Hs-578T it was 14 µM (inactive). Besides, the GI50 was 28.6 µM (inactive) in the assay on SK-MEL-2; > 100 µM (inactive) in the assay on NCI-H226; 20.2 µM (inactive) with U-251; 33.1 µM (inactive) with UACC-257; 92 µM (inactive) in the assay on SF-295.
For `CCN(CC)CCN(/C(=N/c1ccccc1)N1CCOCC1)c1ccccc1`, the GI50 with CCRF-CEM was > 100 µM (inactive); in the assay on HL-60, 18.2 µM (inactive); with OVCAR-4, 95.7 µM (inactive); in the assay on IGROV-1, 48.4 µM (inactive); with COLO 205 it was 39.4 µM (inactive); with NCI/ADR-RES it was > 100 µM (inactive). Moreover, the GI50 in the assay with HCT-116 is 9.89 µM (inactive); in the assay with OVCAR-3 it was > 100 µM (inactive); in the assay with SNB-75 it was > 100 µM (inactive); with SK-MEL-5, > 100 µM (inactive); in the assay with Hs-578T, > 100 µM (inactive); with SK-MEL-2, > 100 µM (inactive). The GI50 in the assay with NCI-H226, in the assay on HCC 2998, with U-251, in the assay on UACC-257, in the assay with EKVX and with SF-295 was > 100 µM (inactive) each time.
In the case of `Oc1ccccc1/C=N/Nc1nnc2c3ccccc3c3ccccc3c2n1`, the GI50 in the assay on CCRF-CEM was > 100 µM (inactive); in the assay on HL-60 it was > 100 µM (inactive); in the assay on OVCAR-4 it was > 100 µM (inactive); with IGROV-1, 39.9 µM (inactive); in the assay on COLO 205 it was > 100 µM (inactive); in the assay on NCI/ADR-RES, 47.9 µM (inactive). The GI50 is > 100 µM (inactive) in the assay with A498; > 100 µM (inactive) in the assay with HCT-116; 14.6 µM (inactive) with OVCAR-3; 20.8 µM (inactive) in the assay with SNB-75; 48.3 µM (inactive) with SK-MEL-5; > 100 µM (inactive) with Hs-578T. The GI50 was 55.5 µM (inactive) in the assay with SK-MEL-2; > 100 µM (inactive) in the assay on NCI-H226; > 100 µM (inactive) in the assay with U-251; 25.2 µM (inactive) in the assay on UACC-257; > 100 µM (inactive) with EKVX; 32.8 µM (inactive) with SF-295.
`CN(C)/C=N\c1nncc2[nH]nnc12`: the GI50 with CCRF-CEM is 26.7 µM (inactive); in the assay with HL-60, 5.97 µM (inactive); in the assay on IGROV-1 it was > 100 µM (inactive); with COLO 205 it was > 100 µM (inactive); in the assay on NCI/ADR-RES it was > 100 µM (inactive); with A498, > 100 µM (inactive). Also, the GI50 with HCT-116, with OVCAR-3, in the assay with SNB-75, with SK-MEL-5, in the assay on Hs-578T and with SK-MEL-2 was > 100 µM (inactive) throughout. The GI50 in the assay with NCI-H226, in the assay with U-251, in the assay on UACC-257, in the assay with EKVX and in the assay with SF-295 was > 100 µM (inactive) in each case.
Regarding `CC1OC(OC2C(O)COC(OC3C(C)OC(OC4C(OC(=O)[C@]56CCC(C)(C)C[C@@H]5C5=CCC7[C@@]8(C)C[C@H](O)[C@H](OC9OC(CO)C(O)C(O)C9O)[C@@](C)(CO)[C@@H]8CC[C@@]7(C)[C@]5(C)CC6)OCC(O)C4O)C(O)C3OC3OCC(O)C(O)C3O)C2O)C(O)C(O)C1O` (stereo partly drawn), the GI50 in the assay with CCRF-CEM is 15.6 µM (inactive); in the assay on OVCAR-4 it was 20.1 µM (inactive); in the assay with COLO 205 it was 4.46 µM (inactive); in the assay on NCI/ADR-RES it was 26.2 µM (inactive); in the assay with A498, 14.3 µM (inactive); with HCT-116, 19.9 µM (inactive). The GI50 was 17.8 µM (inactive) in the assay with OVCAR-3; 22.6 µM (inactive) in the assay with SNB-75; 19.5 µM (inactive) in the assay with SK-MEL-5; 40.9 µM (inactive) in the assay with Hs-578T; 21.4 µM (inactive) with SK-MEL-2; 23.1 µM (inactive) in the assay on NCI-H226. The GI50 in the assay on HCC 2998 was 16.6 µM (inactive); in the assay on U-251, 20 µM (inactive); with UACC-257, 14.9 µM (inactive); in the assay on EKVX it was 10.7 µM (inactive); with SF-295, 20.7 µM (inactive).
With `CC(=O)Nc1nc2c(=O)c3ccccc3sc2s1`, the GI50 with CCRF-CEM, with HL-60, in the assay on IGROV-1, in the assay with COLO 205, in the assay on NCI/ADR-RES and in the assay with A498 was > 100 µM (inactive) each time. For the same molecule, the GI50 with HCT-116, in the assay with OVCAR-3, in the assay on SNB-75, in the assay with SK-MEL-5, in the assay on Hs-578T and in the assay on SK-MEL-2 was > 100 µM (inactive) each time. In addition, the GI50 in the assay with NCI-H226, in the assay with UACC-257, in the assay with EKVX and in the assay on SF-295 was > 100 µM (inactive) throughout.
Take `CCC(=O)Oc1ccc2c(c1)c(=O)c1c(NCCCN(C)C)ccc3nnn2c31`: the GI50 in the assay with CCRF-CEM is 0.127 µM (active); with OVCAR-4, 0.548 µM (active); in the assay on IGROV-1 it was 0.0914 µM (active); with COLO 205, 1.99 µM (inactive); in the assay with NCI/ADR-RES it was 3.31 µM (inactive); with A498, 2.77 µM (inactive). For the same molecule, the GI50 was 0.334 µM (active) with HCT-116; 7 µM (inactive) in the assay on OVCAR-3; 1.9 µM (inactive) in the assay on SK-MEL-5; 5.56 µM (inactive) with Hs-578T; 13 µM (inactive) in the assay on SK-MEL-2; 2.31 µM (inactive) in the assay with NCI-H226. For the same molecule, the GI50 in the assay with HCC 2998 is 1.25 µM (inactive); in the assay on U-251, 1.42 µM (inactive); in the assay on UACC-257, 10.6 µM (inactive); with EKVX it was 1.17 µM (inactive); with SF-295 it was 2.45 µM (inactive).
Take `Cc1[nH]n(-c2ncc(C#N)c(=O)[nH]2)c(=O)c1CCO`: the GI50 with CCRF-CEM, in the assay on OVCAR-4, with IGROV-1, in the assay with COLO 205, in the assay with NCI/ADR-RES and with A498 was > 100 µM (inactive) each time. The GI50 in the assay on HCT-116 is > 100 µM (inactive); in the assay on OVCAR-3, > 100 µM (inactive); in the assay with SNB-75 it was 16.4 µM (inactive); in the assay on SK-MEL-5 it was > 100 µM (inactive); in the assay on Hs-578T, > 100 µM (inactive); with SK-MEL-2, > 100 µM (inactive). For the same molecule, the GI50 in the assay with NCI-H226, with HCC 2998, in the assay on U-251, with UACC-257, with EKVX and in the assay on SF-295 was > 100 µM (inactive) throughout.
